Data set [1] deals with woodchuck hepatitis virus (WHV). Briefly: T-cell proliferative responses of PBMCs to WHV peptides (CellTiter-Glo, stimulation index). Format: in vivo. The following applies: chronic WHV carrier woodchucks; fold change from baseline at T0. Here is the method:
In woodchucks, over a 36-week period, AIC649 was administered i.v. and then i.m., alone or in combination with an initial 12 weeks of the direct acting antiviral, ETV, given orally.
The efficacy of AIC649 monotherapy, ETV monotherapy, or combination AIC649+ETV therapy was compared to a placebo control group (N=5 animals/group). […] Daily observations, changes in body weight and body temperatures, changes in hematology and clinical chemistry, as well as necropsy and histopathology were assessed for determination of safety.
PBMCs were isolated from whole blood and cultured for 5 days in the presence of DMSO (negative control), lipopolysaccharide (LPS, positive control), recombinant human IL-2 (positive control), or pools of peptides covering the entire WHcAg, WHsAg, or WHxAg, respectively. Using the CellTiter-Glo® assay, the number of viable cells in each test well was assessed using a luminescent signal proportional to the amount of ATP present, and thus to the number of viable cells. Cultures were assessed after 5 days and a stimulation index (SI) was derived relative to the negative controls as a measure of T-cell responses to specific antigens/stimuli:
SI=Test luminescence/negative control luminescence

A short description of data set [2]: Safety assessment (mortality, observations, body weight, temperature, hematology, clinical chemistry, necropsy, histopathology). Format: in vivo, woodchuck. The following applies: n=5/group at start of experiment; week of death. Here is the method: Treatment-induced changes in viremia, antigenemia, immunological parameters, as well as the induction of WHsAg antibody seroconversion were evaluated for determination of antiviral effects. Daily observations, changes in body weight and body temperatures, changes in hematology and clinical chemistry, as well as necropsy and histopathology were assessed for determination of safety.
The efficacy of AIC649 monotherapy, ETV monotherapy, or combination AIC649+ETV therapy was compared to a placebo control group (N=5 animals/group). […] Daily observations, changes in body weight and body temperatures, changes in hematology and clinical chemistry, as well as necropsy and histopathology were assessed for determination of safety. […]
Mortality was assessed daily for all animals.
Body temperature and weight assessments were performed together, weekly. The animal identification number and body temperature were read from a microchip implanted in the dorsal base of the tail using a hand-held chip reader (Biomedical Data Systems Inc.). […]
Uncoagulated whole blood was collected in EDTA tubes. […] Samples were analyzed the following day using an automated cell counter system (coulter) with program settings for woodchucks (Bellezza, C. A., et al., 2002, Elsevier. p. 309-328). […]

Turning to `C=C1[C@H](CO)[C@@H](O)C[C@@H]1n1cnc2c(=O)[nH]c(N)nc21` [ETV, Entecavir], the “cell mediated immune responses (PBMCs stimulated with WHsAg peptides)” value in data set [1] was “not”. Further, the deaths in group in data set [2] is 1 animal each at week 4, 14, 21, 29.

These data come from patent publication US20200261520A1, “Combination Therapies of Hepatitis B Virus (HBV)-infected individuals using Parapoxvirus Ovis (PPVO) and at Least one Further Antiviral Drug” (priority 2017, published 2020).
